Data set [1] has as its system Rattus norvegicus. Put plainly: Oral bioavailability in rat.
Data set [2] can be described thus: tmax in hours at a iv dose of 1.0(pmol/g/h). The data set is classed as ADME, organism-based. The following applies: in vivo.
For data set [3], the system named is Rattus norvegicus. Put plainly: The compound was tested in vivo for DOPA accumulation in limbic system against reserpine-pretreated rats;I= inactive at the highest dose tested. It is filed as functional, organism-based.
In data set [4] the target is T1, D(2) dopamine receptor (Rattus norvegicus, UniProt P61169). Put plainly: Binding affinity against Dopamine receptor D2 from CHO-K1 cells, using [3H]U-86,170 as the radioligand. It is filed as cell-based.
T1 sequence (P61169 whole entry): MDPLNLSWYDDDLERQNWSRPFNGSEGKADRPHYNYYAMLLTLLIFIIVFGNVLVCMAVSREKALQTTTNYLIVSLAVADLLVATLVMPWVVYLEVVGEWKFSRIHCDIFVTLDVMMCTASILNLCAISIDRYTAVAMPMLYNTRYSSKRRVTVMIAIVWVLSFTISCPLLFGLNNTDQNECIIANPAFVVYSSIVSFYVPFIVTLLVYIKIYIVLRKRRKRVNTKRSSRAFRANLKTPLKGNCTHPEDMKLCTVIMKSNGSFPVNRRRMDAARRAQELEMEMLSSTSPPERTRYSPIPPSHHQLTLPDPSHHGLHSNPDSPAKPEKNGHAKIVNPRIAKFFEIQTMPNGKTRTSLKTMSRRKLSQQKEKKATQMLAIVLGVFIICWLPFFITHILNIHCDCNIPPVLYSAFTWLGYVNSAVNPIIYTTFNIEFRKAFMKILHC
The subject of data set [5] is Rattus norvegicus. The data set can be described thus: The compound was tested in vivo for DOPA accumulation in hemispheres (cortex) against reserpine-pretreated rats;I= inactive at the highest dose tested. The data set is classed as functional, organism-based.
Data set [6] deals with T2, D(3) dopamine receptor (Rattus norvegicus, UniProt P19020). Put plainly: Binding affinity against Dopamine receptor D3 from CHO-K1 cells, using [3H]spiperone as the radioligand. It is filed as cell-based. The following applies: read-out: Ki.
T2 sequence (P19020 whole entry): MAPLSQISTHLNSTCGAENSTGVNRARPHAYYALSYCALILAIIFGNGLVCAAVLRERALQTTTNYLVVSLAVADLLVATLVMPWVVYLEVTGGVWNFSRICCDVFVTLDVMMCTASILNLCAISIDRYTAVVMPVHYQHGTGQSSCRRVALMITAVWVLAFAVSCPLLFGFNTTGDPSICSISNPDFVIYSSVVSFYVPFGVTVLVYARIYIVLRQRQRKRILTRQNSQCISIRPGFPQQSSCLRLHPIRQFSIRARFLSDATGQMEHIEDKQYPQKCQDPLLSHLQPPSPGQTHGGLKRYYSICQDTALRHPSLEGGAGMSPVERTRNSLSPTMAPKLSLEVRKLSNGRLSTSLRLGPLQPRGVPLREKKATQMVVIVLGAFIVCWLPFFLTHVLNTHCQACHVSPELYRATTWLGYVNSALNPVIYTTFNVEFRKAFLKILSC
Data set [7] relates to Rattus norvegicus. Put plainly: Bioavailability in male Sprague-Dawley rats, after the po administration at a dose of 20.0(pmol/g/h). It is filed as ADME, organism-based. The following applies: in vivo.
Data set [8] concerns Rattus norvegicus. Put plainly: compound was tested in vivo for DOPA accumulation in corpus striatum against reserpine-pretreated rats; I=inactive at the highest dose tested. It is filed as functional, organism-based.
Data set [9] relates to Rattus norvegicus. Put plainly: Bioavailability in male Sprague-Dawley rats, after the iv administration at a dose of 1.0(pmol/g/h). It is filed as ADME, organism-based. Conditions: in vivo.
The nature of data set [10]: tmax in hours at a po dose of 20.0(pmol/g/h). The data set is classed as ADME, organism-based. Conditions: in vivo.
The test system of data set [11] is Rattus norvegicus. The data set can be described thus: In vivo for 5-HTP accumulation in limbic system against reserpine-pretreated rats. The data set is classed as functional.
Data set [12] concerns Rattus norvegicus. Put plainly: The Compound was tested in vivo for DOPA accumulation in hemispheres (cortex) against reserpine-pretreated rats;I= inactive at the highest dose tested (50). The data set is classed as functional, organism-based.
The subject of data set [13] is Rattus norvegicus. The data set can be described thus: Compound was tested in vivo for DOPA accumulation in corpus striatum against reserpine-pretreated rats. The data set is classed as functional.
Data set [14] deals with T3, 5-hydroxytryptamine receptor 1A (Rattus norvegicus, UniProt P19327).
T3 sequence (P19327 whole entry): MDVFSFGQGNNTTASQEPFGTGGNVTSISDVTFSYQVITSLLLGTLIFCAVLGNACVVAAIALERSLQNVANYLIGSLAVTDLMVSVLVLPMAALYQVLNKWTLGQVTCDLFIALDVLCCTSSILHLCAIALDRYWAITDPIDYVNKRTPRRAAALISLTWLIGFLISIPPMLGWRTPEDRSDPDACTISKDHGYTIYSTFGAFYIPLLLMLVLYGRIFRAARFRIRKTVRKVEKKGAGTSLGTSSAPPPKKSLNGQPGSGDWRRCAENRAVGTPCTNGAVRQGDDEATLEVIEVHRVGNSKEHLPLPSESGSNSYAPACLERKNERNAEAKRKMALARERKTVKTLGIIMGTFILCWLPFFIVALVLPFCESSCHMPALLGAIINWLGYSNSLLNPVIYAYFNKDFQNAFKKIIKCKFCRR
Put plainly: Binding affinity against 5-hydroxytryptamine 1A receptor from CHO-K1 cells, using [3H]8-OH-DPAT as the radioligand. It is filed as cell-based.

The subject of data set [15] is Rattus norvegicus. Put plainly: In vivo for 5-HTP accumulation in hemispheres (cortex) against reserpine-pretreated rats. The data set is classed as functional.
Data set [16] concerns the target 5-hydroxytryptamine receptor 1D (Homo sapiens, UniProt P28221). The data set can be described thus: Binding affinity against 5-hydroxytryptamine 1D receptor alpha expressed in CHO-K1 cells, using [3H]-5-HT as the radioligand. It is filed as cell-based. The following applies: read-out: Ki.
The subject of data set [17] is Rattus norvegicus. The data set can be described thus: In vivo for DOPA accumulation in limbic system against reserpine-pretreated rats. It is filed as functional.
The subject of data set [18] is Rattus norvegicus. Put plainly: In vivo for 5-HTP accumulation in corpus striatum against reserpine-pretreated rats. It is filed as functional.
Data set [19] deals with 5-hydroxytryptamine receptor 1B (Homo sapiens, UniProt P28222). Put plainly: Binding affinity against 5-hydroxytryptamine 1D receptor beta expressed in CHO-K1 cells, using [3H]5-HT as the radioligand. The following applies: read-out: Ki. It is filed as cell-based.
Sequence of 5-hydroxytryptamine receptor 1B (P28222 whole entry): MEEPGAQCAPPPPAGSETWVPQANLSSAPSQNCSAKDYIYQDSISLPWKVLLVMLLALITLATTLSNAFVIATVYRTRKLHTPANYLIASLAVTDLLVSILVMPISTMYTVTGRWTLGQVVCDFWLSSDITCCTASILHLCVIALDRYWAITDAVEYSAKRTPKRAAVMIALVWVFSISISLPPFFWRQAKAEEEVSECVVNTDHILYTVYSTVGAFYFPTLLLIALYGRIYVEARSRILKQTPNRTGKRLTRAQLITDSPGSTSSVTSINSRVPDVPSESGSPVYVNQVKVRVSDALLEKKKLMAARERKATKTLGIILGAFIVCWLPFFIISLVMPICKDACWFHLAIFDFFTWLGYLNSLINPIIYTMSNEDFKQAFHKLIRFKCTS
The nature of data set [20]: tmax in hours at a iv dose of 4.0(pmol/g/h). The following applies: in vivo. The data set is classed as ADME, organism-based.
A short description of data set [21]: tmax in hours at a po dose of 10.0(pmol/g/h). The data set is classed as ADME, organism-based. The following applies: in vivo, 10 pmol/g/h.
A short description of data set [22]: Bioavailability in rat plasma following iv/po dose. The data set is classed as ADME, organism-based.
In data set [23] the test system is Rattus norvegicus. The data set can be described thus: Bioavailability in male Sprague-Dawley rats, after the po administration at a dose of 10.0(pmol/g/h). It is filed as ADME, organism-based. The following applies: in vivo.
In data set [24] the test system is Rattus norvegicus. The data set can be described thus: Bioavailability in male Sprague-Dawley rats, after the iv administration at a dose of 4.0(pmol/g/h). Conditions: in vivo. The data set is classed as ADME, organism-based.
The subject of data set [25] is Rattus norvegicus. Put plainly: The Compound was tested in vivo for DOPA accumulation in hemispheres (cortex) against reserpine-pretreated rats; I= inactive at the highest dose tested (12.5). The data set is classed as functional, organism-based.
A short description of data set [26]: Ratio of the 5-HTP accumulation decrease in limbic regions after oral and subcutaneous administration in rat. It is filed as functional, Limbic system.
Data set [27] relates to Rattus norvegicus. The data set can be described thus: compound was tested in vivo for 5-HTP accumulation in limbic system against reserpine-pretreated rats,. It is filed as functional.
The subject of data set [28] is Rattus norvegicus. The data set can be described thus: The compound was tested in vivo for DOPA accumulation in hemispheres (cortex) against reserpine-pretreated rats; I= inactive at the highest dose tested (12.5). The data set is classed as functional, organism-based.
Data set [29] deals with T2, D(3) dopamine receptor. The data set can be described thus: The compound was tested in vitro for binding affinity against cloned mammalian Dopamine receptor D3 expressed in CHO cells by, using [3H]spiperone as radioligand. The data set is classed as cell-based.
Data set [30] deals with Rattus norvegicus. Put plainly: compound was tested in vivo for 5-HTP accumulation in hemispheres (cortex) against reserpine-pretreated rats(. The data set is classed as functional.
Data set [31] concerns Rattus norvegicus. Put plainly: compound was tested in vivo for DOPA accumulation in corpus striatum against reserpine-pretreated rats; P=significant partial reduction only at the highest dose tested (12.5). The data set is classed as functional, organism-based.
Data set [32] concerns Rattus norvegicus. Put plainly: compound was tested in vivo for 5-HTP accumulation in corpus striatum against reserpine-pretreated rats, activity expressed as ED50. It is filed as functional.
Data set [33] addresses T1, D(2) dopamine receptor. Put plainly: Binding affinity against Dopamine receptor D2 expressed in CHO-K1 cells, using [3H]U-86170 as the radioligand. It is filed as cell-based.
Data set [34] relates to Rattus norvegicus. The data set can be described thus: Compound was tested in vivo for DOPA accumulation in corpus striatum against reserpine-pretreated rats;P= significant partial reduction only at the highest dose tested (50). The data set is classed as functional, organism-based.
In data set [35] the test system is Rattus norvegicus. Put plainly: The Compound was tested in vivo for DOPA accumulation in limbic system against reserpine-pretreated rats; P=significant partial reduction only at the highest dose tested (50). It is filed as functional, organism-based.
Data set [36] concerns Rattus norvegicus. The data set can be described thus: Compound was tested in vivo for 5-HTP accumulation in corpus striatum against reserpine-pretreated rats; P=significant partial reduction only at the highest dose tested (50). The data set is classed as functional, organism-based.
For data set [37], the target named is T1, D(2) dopamine receptor. The following applies: cho-k1.
Data set [38] deals with Rattus norvegicus. Put plainly: Compound was tested in vivo for 5-HTP accumulation in hemispheres (cortex) against reserpine-pretreated rats; P=significant partial reduction only at the highest dose tested (50). The data set is classed as functional, organism-based.
In data set [39] the test system is Rattus norvegicus. Put plainly: Compound was tested in vivo for 5-HTP accumulation in limbic system against reserpine-pretreated rats; P=significant partial reduction only at the highest dose tested (50). The data set is classed as functional, organism-based.
For data set [40], the system named is Rattus norvegicus. The data set can be described thus: The Compound was tested in vivo for DOPA accumulation in hemispheres (cortex) against reserpine-pretreated rats; P=significant partial reduction only at the highest dose tested (50). The data set is classed as functional, organism-based.
In data set [41] the test system is Rattus norvegicus. The data set can be described thus: compound was tested in vivo for 5-HTP accumulation in limbic system against reserpine-pretreated rats. The data set is classed as functional.
In data set [42] the test system is Rattus norvegicus. The data set can be described thus: compound was tested in vivo for 5-HTP accumulation in hemispheres (cortex) against reserpine-pretreated rats. The data set is classed as functional.

Experimental findings from ChEMBL document CHEMBL1128401, “Structure-activity relationships in the 8-amino-6,7,8,9-tetrahydro-3H-benz[e]indole ring system. 1. Effects of substituents in the aromatic system on serotonin and dopamine receptor subtypes” (J Med Chem, 1995) are described below.

A word on the Tmax: it is the time at which the peak concentration occurs. The ED50 is the dose at which the effect has come halfway, by size or by number of responders. The Ki is the dissociation constant of the complex between target and ligand, obtained from inhibition or displacement. What is called bioavailability is dose-corrected exposure relative to a reference, in per cent. The low end stands for poor availability, the high end for good availability.

Structures are written as SMILES. Calls of active or inactive are those of the source. No cut-off for these calls is given here.

Sequence of 5-hydroxytryptamine receptor 1D (P28221 whole entry): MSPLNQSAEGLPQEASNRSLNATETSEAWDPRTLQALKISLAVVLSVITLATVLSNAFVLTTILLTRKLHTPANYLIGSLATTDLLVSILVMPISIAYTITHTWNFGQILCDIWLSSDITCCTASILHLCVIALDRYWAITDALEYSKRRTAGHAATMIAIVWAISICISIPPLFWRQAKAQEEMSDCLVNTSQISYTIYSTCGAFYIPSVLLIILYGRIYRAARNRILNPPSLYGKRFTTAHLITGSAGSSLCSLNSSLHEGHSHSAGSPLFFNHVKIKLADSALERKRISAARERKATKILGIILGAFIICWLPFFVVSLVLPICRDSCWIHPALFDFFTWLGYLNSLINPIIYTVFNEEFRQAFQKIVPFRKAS

Turning to `CCCN(CCC)C1CCc2cccc(O)c2C1` (stereo unspecified) [8-OH-DPAT], the F in the data set on Rattus norvegicus [1] was found to be 2.4%. In addition, the Tmax in data set [2] is 3 min; in [10], 0.483 h. In addition, the ED50 result with Rattus norvegicus [3], with Rattus norvegicus [5] and with Rattus norvegicus [8] was “inactive” in each case. Also, the Ki at D(2) dopamine receptor [4] amounted to 1130 nM; on D(3) dopamine receptor [6] it was 333 nM. In addition, the results for the AUC in the data set with Rattus norvegicus [7] and in the data set with Rattus norvegicus [9] were 104 pM ml-1 and 213 pM ml-1, respectively.

For the compound `CCCN(CCC)C1CCc2ccc3[nH]cc(C(=O)C(F)(F)F)c3c2C1` (stereo unspecified), the ED50 was 12.6 µmol/kg with Rattus norvegicus [11]; 12.6 µmol/kg in the data set with Rattus norvegicus [13]; 16.3 µmol/kg in the data set with Rattus norvegicus [15]; 20.8 µmol/kg in the data set on Rattus norvegicus [17]; 6.5 µmol/kg in the data set on Rattus norvegicus [18]. Further, the Ki at D(2) dopamine receptor [4] amounted to 544 nM; at D(3) dopamine receptor [6], 675 nM; in [14], 20 nM; in [16], 112 nM; in [19], 279 nM. The ED50 entry in the data set on Rattus norvegicus [12] was “inactive”.

Turning to `CCCN(CCC)[C@@H]1CCc2ccc3[nH]c(C#N)cc3c2C1` [U-92,016-A], the Tmax in data set [20] was determined as 4 h; in data set [21] it was 75 h. The bioavailability in data set [22] came to 63%. The AUC with Rattus norvegicus [23] came to 2857 pM ml-1; in the data set on Rattus norvegicus [24], 1817 pM ml-1. The ED50 entry in the data set on Rattus norvegicus [25] is “inactive”. The ED50 ratio in data set [26] stood at 38.

As to `CCCN(CCC)C1CCc2cc(F)c3[nH]cc(C=O)c3c2C1` (stereo unspecified), the ED50 was 0.079 µmol/kg in the data set on Rattus norvegicus [27], 0.027 µmol/kg in the data set with Rattus norvegicus [30], “Weak activity” in the data set on Rattus norvegicus [31] and 0.042 µmol/kg in the data set on Rattus norvegicus [32]. Also, the ED50 result in the data set with Rattus norvegicus [28] is “inactive”. Further, the Ki at D(3) dopamine receptor [29] was 65 nM; in [14], 0.5 nM; in data set [16] it was 4.6 nM; in data set [19] it was 82 nM; on D(2) dopamine receptor [33] it was 65 nM.

As to `CCCN(CCC)C1CCc2ccc3[nH]cc(C(=O)C(N)=O)c3c2C1` (stereo unspecified), the ED50 result in the data set on Rattus norvegicus [34], with Rattus norvegicus [35], with Rattus norvegicus [36], in the data set on Rattus norvegicus [38], with Rattus norvegicus [39] and in the data set on Rattus norvegicus [40] was “Weak activity” each time. Moreover, the Ki in data set [14] was 24 nM; at D(2) dopamine receptor [37], “Not Active”; in data set [16] it was 87 nM; in data set [19], 552 nM.

With `CCCN(CCC)[C@@H]1CCc2cc(F)c3[nH]cc(C=O)c3c2C1`, the Ki at D(2) dopamine receptor [4] stood at 48 nM; on D(3) dopamine receptor [6], 55 nM; in [14], 0.3 nM; in data set [16], 4.4 nM. Besides, the ED50 in the data set on Rattus norvegicus [41] was determined as 0.078 µmol/kg; in the data set on Rattus norvegicus [42], 0.084 µmol/kg; in the data set on Rattus norvegicus [32] it was 0.083 µmol/kg. Besides, the ED50 result in the data set with Rattus norvegicus [5] was “inactive”.
